Results published in patent US8957022B2, “Multimeric tie 2 agonists and uses thereof in stimulating angiogenesis” (Sunnybrook Health Sciences Centre, priority 2006, dated 2015).

Columns and labels:
Tie 2 = Tie 2 (Homo sapiens, UniProt Q02763); assay: In vitro pull down assay of Tie 2 from EaHy926 cell lysate; format: binding; set-up: a cell lysate of EaHy926 endothelial cells (which express high levels of Tie 2) was prepared; endogenous in cells; host or cells: EaHy926 endothelial cells
Description: In this example, the ability of Vasculotide to bind the Tie 2 receptor, despite the engineered modifications, was tested using an in vitro pull down assay. In the pull down assay, a cell lysate of EaHy926 endothelial cells (which express high levels of Tie 2) was prepared in Phospho Lipase Cγ lysis buffer (50 mM Hepes buffer pH 7.5, 150 mM NaCl, 10% glycerol, 1% Triton X-100, 1.5 mM MgCl2, 1.0 mM EGTA, 10 mM NaPPi, […], 2 mM Na3VO4, 1× aprotinin, 1× leupeptin and 1×PMSF). The whole cell lysate was mixed with either unclustered biotinylated Vasculotide or biotinylated irrelevant peptide. The biotinylated peptides then were isolated with avidin agarose and subsequently tested for their ability to precipitate Tie 2 via standard immunoblot analysis using anti-Tie 2 antibody.

[1] = tested on: Cos 1 fibroblast cells and C166 EC's (phenotypically null for Tie 2); assay: MAPK and AKT phosphorylation in Ad-EGFP infected cells null for Tie 2; format: cell-based; details: EGFP infected Cos 1 and C166 cells
Description: To more formally address the specificity of clustered Vasculotide for the Tie 2 receptor, reconstitution experiments were performed in Cos 1 fibroblast cells and C166 EC's, both of which are phenotypically null for Tie 2. Cos 1 and C166 cells (ATCC) were maintained on 10-cm-diameter plates (Nunc) in Dulbecco's modified Eagle's medium (DMEM) supplemented with 10% (FBS), 1× penicillin, 1× streptomycin, and 200 mM L-glutamine (all Gibco BRL) in a 5% CO2 incubator at 37° C. Cos1 or C166 cells were infected (MOI 30) overnight with adenoviruses encoding one of either enhanced green fluorescent protein (EGFP) or Tie 2. Infection efficiency was confirmed by epifluorescence (EGFP), or by immunoblot (Tie 2).
Cells infected with recombinant adenovirus encoding EGFP or Tie 2 were either left unstimulated or stimulated with Vasculotide, clustered Vasculotide or avidin for 16 hours, after which MTS reagent was applied to all samples for 4 hours. Absorbance at 492 was measured using a multiwell plate reader (Power Wave X340, Biotek Instruments Inc). To broadly examine the potential that clustered Vasculotide was activating Tie 2-independent downstream signalling pathways, the activation of MAPK and AKT in the EGFP infected cells was examined. […] This fact precluded us from stimulating these cells any further with Vasculotide or clustered Vasculotide.

[2] = tested on: B6.Cg-m(+/+)Lepr(db)/J (db/db) mice; assay: Excisional wound healing in diabetic mice, topical application; format: in vivo, mouse
Description: Pathogen free, nine week old B6.Cg-m(+/+)Lepr(db)/J (db/db) mice were purchased from Jackson Laboratories. Circular, full excisional, 6 mm diameter wounds were made, according to animal committee approval guidelines, equal distant apart on the dorsal side of the mice. Various factors were suspended in sterile Intrasite Topical Gel (Smith and Nephew) at noted concentrations. Treatments were as follows: Vehicle n=8, bFGF (10 μg/ml) n=8, clustered Vasculotide (20 nM) n=4, clustered Vasculotide (5 nM) n=4. Preparations were applied at day 0 (time of wounding), day 2, 4 and 6. Standardized images were taken on days 0, 2, 4, 6 and 7 using a Canon EOS digital Rebel camera. Image J (NIH) was used to manually outline wound perimeter from which total pixel counts (wound area) were determined. Mice were sacrificed on day 7 and full wound beds including margin were excised and fixed in 4% PFA. Wounds were cut in half at the widest point and each half was prepared for either paraffin or frozen sections. Wax sections were processed according to standard protocols for H&E and Masson's Trichrome stain. Images were captured using a Leica DMLS compound light microscope and Pixel Link camera at 5× and 20×. Student's t test was used to test the statistical significance.
For histological scoring, sections were fixed in 4% paraformaldehyde, embedded in paraffin and sectioned and stained with H & E and Masson's trichrome. Sections were evaluated by a pathologist for re-epithelialization, granulation tissue formation, and inflammation, with criteria used for scoring skin as follows:
• 0—none • 1—minimal (0-20% regrowth from wound margins) • 2—mild (25% to 50% regrowth) • 3—moderate (>50% regrowth, up to 100% but not >2 cells thick along length) • 4—complete regrowth (epithelium>1 cell thick along length, keratinized) Granulation Tissue (GT) and Neovascularization: • 0—none • 1—minimal (1-3 small, isolated islands of GT at margins of defect) • 2—mild (multifocal, patchy islands of GT underlying tissue defect, <10 new blood vessels) • 3—moderate (locally extensive bands of GT underlying length of defect) • 4—marked (dense bands of GT at margins and underlying length of defect with collagen fibrils and numerous blood vessels) Inflammation (within Defect): • 0—none • 1—minimal (a few scattered neutrophils at margins of defect) • 2—mild (multifocal aggregates of up to 5 neutrophils underlying defect) • 3—moderate (multifocal aggregates of up to 10 neutrophils and occasional macrophages, minimal to mild edema) • 4—marked (locally extensive, dense neutrophilic infiltrates with lesser numbers of macrophages, mild-moderate edema)

MMP2 = assay: Gelatin zymography of HUVEC conditioned media; format: cell-based, human; details: HUVEC, 0.1% FBS, 16 h, various concentrations
Description: In vivo, ECs can not migrate until they secrete enzymes necessary to break down components of the extra cellular matrix. Gelatin zymography was employed to determine if clustered Vasculotide promoted secretion of MMP2. To perform the zymography, HUVEC were cultured in F12 media plus 0.1% FBS and stimulated for 16 h with VEGF, unclustered Vasculotide or clustered Vasculotide at various concentrations. Conditioned media was centrifuged to remove cellular debris and prepared for gel electrophoresis using non-reducing conditions. Gels were washed twice for 30 minutes in 2.5% Triton X-100 to remove sodium dodecyl sulfate and were then incubated in substrate buffer (50 mmol/L Tris-HCl, pH 8.8, 5 mmol/L CaCl2) for 16 hours at 37° C. Gels were then stained with 0.5% Coomassie blue in 30% methanol/10% acetic acid for 2 hours at room temperature and destained in 50% methanol/10% acetic acid. The presence of metalloproteinases was indicated by unstained proteolytic zones in the gel.

Chain of Tie 2 (Q02763 23-1124): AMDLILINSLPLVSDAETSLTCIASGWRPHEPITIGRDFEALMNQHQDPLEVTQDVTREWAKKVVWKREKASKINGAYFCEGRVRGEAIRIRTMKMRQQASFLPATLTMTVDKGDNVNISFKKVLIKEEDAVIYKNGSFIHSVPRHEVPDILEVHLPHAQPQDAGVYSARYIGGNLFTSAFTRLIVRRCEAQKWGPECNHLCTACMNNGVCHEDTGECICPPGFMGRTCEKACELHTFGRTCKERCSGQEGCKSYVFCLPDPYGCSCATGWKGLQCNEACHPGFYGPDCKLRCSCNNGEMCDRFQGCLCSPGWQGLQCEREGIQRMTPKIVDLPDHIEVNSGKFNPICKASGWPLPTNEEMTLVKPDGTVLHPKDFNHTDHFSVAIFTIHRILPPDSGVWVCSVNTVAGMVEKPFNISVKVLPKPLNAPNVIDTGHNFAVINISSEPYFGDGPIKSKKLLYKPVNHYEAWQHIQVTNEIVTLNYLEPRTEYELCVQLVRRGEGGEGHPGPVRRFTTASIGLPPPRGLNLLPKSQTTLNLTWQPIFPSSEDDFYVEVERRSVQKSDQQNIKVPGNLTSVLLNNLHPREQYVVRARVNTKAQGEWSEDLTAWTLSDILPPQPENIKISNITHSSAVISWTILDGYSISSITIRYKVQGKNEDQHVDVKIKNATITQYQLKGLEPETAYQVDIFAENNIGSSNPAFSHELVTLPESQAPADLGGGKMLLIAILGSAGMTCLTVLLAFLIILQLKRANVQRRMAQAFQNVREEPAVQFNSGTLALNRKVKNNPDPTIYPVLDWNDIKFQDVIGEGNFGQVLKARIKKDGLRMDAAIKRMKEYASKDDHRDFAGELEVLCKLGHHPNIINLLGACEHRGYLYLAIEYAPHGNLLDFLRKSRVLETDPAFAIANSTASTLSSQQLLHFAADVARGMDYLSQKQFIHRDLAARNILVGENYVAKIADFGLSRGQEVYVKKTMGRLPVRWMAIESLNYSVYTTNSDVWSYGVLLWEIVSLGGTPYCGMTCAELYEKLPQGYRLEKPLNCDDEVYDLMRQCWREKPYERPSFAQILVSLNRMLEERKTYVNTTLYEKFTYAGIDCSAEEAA

Substance | Precipitation of Tie 2 (avidin agarose pull down, anti-Tie 2 immunoblot) (Tie 2; EaHy926 whole cell lysate, unclustered biotinylated peptide) | Phosphorylation of MAPK or AKT above non-stimulated samples [1] | Granulation tissue production (H&E and MT staining) ([2]; day 7 wound sections) | Competition for available Tie 2 in the pull down (Tie 2; ten fold excess, preclustered with soluble avidin) | Secretion of MMP2 (gelatin degradation, pro and active forms) (MMP2) | Benefit at lower concentration ([2]; 5 nM versus 20 nM) | Inflammation (histological score) ([2]; 5 nM, p=0.0979) | Regranulation and neovascularization (histological score) ([2]; 20 nM and 5 nM p=0.0006) | Wound margin (pixel counts) at day 2 ([2]; 20 nM topical, p=0.05, n=4) | Re-epithelialization (histological score) ([2]; 20 nM, p=0.0004 and 5 nM, p=0.029) | Inflammation (histological score) ([2]; 20 nM, p=0.034) | Overall collagen deposition (Masson's Trichrome) ([2]; both concentrations, compared to vehicle and bFGF) | Lymphangiogenesis (podoplannin-positive vessels) ([2]; immunohistochemistry) | PECAM1- and Pan EC-positive vessels within the granulation tissue ([2]; immunohistochemistry, 5 nM and 20 nM) | Margin closure for the duration of the assay ([2]; topical, days 0-7)
Vasculotide: biotinylated T7 peptide-PEG: Cys-His-His-His-Arg-His-Ser-Phe (SEQ ID NO: 2) conjugated to EZ-link-PEO-maleimide-biotin | able to precipitate Tie 2 | Neither Vasculotide nor clustered Vasculotide significantly induced phosphorylation of MAPK or AKT | dramatic increases in granulation tissue production |  |  |  |  |  |  |  |  |  |  |  | 
clustered Vasculotide: Vasculotide clustered with avidin in a 4:1 ratio, an obligate tetrameric compound |  | Neither Vasculotide nor clustered Vasculotide significantly induced phosphorylation of MAPK or AKT |  | able to abolish this interaction | dose-dependently degraded gelatin | seemed to offer more benefit | not significantly different from vehicle | profound increases in regranulation and neovascularization | Significant decreases in wound margin | delayed re-epithelialization | only slightly increased | dramatically increased | not accompanied by an increase in lymphangiogenesis | dramatic increases in the number of PECAM1- and Pan EC-positive vessels | continued at an accelerated pace
